The target of one experiment is T1, Human D2 Receptors (Homo sapiens, UniProt P14416).
T1 construct: expressed in transfected cells
Nature of the experiment: Inhibition of [^3 H]spiperone binding to human D2 receptors. The text has this: (§1) The compounds of Formula I are valuable dopaminergic agents. Dopamine D2 antagonists are established as antipsychotic agents. More recently, the dopamine D3 receptor has been identified. On the basis of the localization of the dopamine D3 receptor in the limbic area of the brain, a selective D3 antagonist should show antipsychotic activity but not have the neurological side effects of D2 antagonists. The tests employed indicate that compounds of Formula I bind selectively to the dopamine D3 receptor. Thus, the compounds of Formula I were tested for their ability to bind to dopamine receptors as measured by their inhibition of [^3 H]spiperone binding to the human D2 and D3 receptors in a receptor assay described by MacKenzie R. G., et al., Characterization of the human D3 dopamine receptor expressed in transfected cell lines, Eur. J. Pharmacol., 266:79 (1994); and for their ability to inhibit locomotor activity in mice and rats, a measure of antipsychotic activity, according to the assay described by McLean J. R., et al., Pharmacology, Biochemistry and Behavior, 8:97-99 (1978). The above test methods are incorporated herein by reference.

A further experiment has as its target T2, Human D3 Receptors (Homo sapiens, UniProt P35462).
T2 construct: expressed in transfected cells
Nature of the experiment: Inhibition of [^3 H]spiperone binding to human D3 receptors. An excerpt:
Dopamine D2 antagonists are established as antipsychotic agents. More recently, the dopamine D3 receptor has been identified. On the basis of the localization of the dopamine D3 receptor in the limbic area of the brain, a selective D3 antagonist should show antipsychotic activity but not have the neurological side effects of D2 antagonists. […] The above test methods are incorporated herein by reference.

For experiment [1], the system named is Locomotor Activity in Rats. The experiment is described as follows: Inhibition of locomotor activity in rats. The format is in vivo. The conditions noted are these: Rattus norvegicus, IP.
Source text: as §1

Where [2] appears, read: human D2, read-out: Inhibition of [^3 H]Spiperone Binding to Human D2 Receptors IC50.
Setting [3] is: human D3, transfected cell lines, read-out: Inhibition of [^3 H]Spiperone Binding to Human D3 Receptors IC50.

Like-named read-outs stand apart in the source and are kept apart here.

T1 sequence (P14416 whole entry): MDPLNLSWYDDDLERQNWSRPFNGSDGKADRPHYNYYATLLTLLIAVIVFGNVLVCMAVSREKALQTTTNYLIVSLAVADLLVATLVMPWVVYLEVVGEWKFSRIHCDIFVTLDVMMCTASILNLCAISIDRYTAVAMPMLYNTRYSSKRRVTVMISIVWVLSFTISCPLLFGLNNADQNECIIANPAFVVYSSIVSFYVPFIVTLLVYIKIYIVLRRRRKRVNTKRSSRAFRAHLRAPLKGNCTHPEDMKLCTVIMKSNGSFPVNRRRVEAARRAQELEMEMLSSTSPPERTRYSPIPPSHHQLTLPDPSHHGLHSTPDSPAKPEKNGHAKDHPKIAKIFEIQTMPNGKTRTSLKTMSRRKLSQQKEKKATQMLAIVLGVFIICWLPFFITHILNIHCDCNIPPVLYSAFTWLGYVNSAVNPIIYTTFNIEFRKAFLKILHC
T2 sequence (P35462 whole entry): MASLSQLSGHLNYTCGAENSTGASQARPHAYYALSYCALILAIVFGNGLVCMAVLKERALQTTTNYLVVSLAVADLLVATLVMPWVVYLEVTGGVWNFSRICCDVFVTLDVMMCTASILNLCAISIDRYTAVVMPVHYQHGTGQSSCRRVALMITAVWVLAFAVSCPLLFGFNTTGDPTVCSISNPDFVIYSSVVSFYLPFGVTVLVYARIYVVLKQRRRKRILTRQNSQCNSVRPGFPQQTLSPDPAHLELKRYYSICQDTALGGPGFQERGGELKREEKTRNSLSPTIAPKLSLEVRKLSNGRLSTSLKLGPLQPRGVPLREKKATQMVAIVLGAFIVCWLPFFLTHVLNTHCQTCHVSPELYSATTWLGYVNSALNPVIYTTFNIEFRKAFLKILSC

Turning to `COc1ccc(N2CCN(CCCOc3ccc(-c4nc5ccccc5[nH]4)cc3)CC2)cc1` [Example 11, 2-[4-[3-[4-(4-Methoxyphenyl)-1-piperazinyl]-propoxy]phenyl]-1H-benzimidazole], the half-maximal inhibitory concentration (IC50) on Human D2 Receptors (setting [2]) was 265 nM. Regarding `c1ccc(N2CCN(CCCCOc3ccc(-c4nc5ccccc5[nH]4)cc3)CC2)cc1` [Example 16, 2-[4-[4-(4-Phenyl-1-piperazinyl)butoxy]phenyl]-1H-benzimidazole], the concentration for half-maximal inhibition (IC50) on Human D3 Receptors (setting [3]) was found to be 1.7 nM; at Human D2 Receptors (setting [2]) it was 46 nM.

On to `Clc1cccc(N2CCN(CCCOc3ccc(-c4nc5cccnc5[nH]4)cc3)CC2)c1Cl` [Example 13, 2-[4-[3-[4-(2,3-Dichlorophenyl)-1-piperazinyl]propoxy]phenyl]-3H-imidazo[4,5-b]pyridine], for which the concentration for half-maximal inhibition (IC50) on Human D3 Receptors (setting [3]) amounted to 3 nM; at Human D2 Receptors (setting [2]), 329 nM. Further, the ED50 in experiment [1] was determined as 4.2 mg/kg. For `c1ccc(N2CCN(CCCCc3ccc(-c4nc5ccccc5[nH]4)cc3)CC2)cc1` [Example 22, 2-[4-[4-(4-Phenyl-1-piperazinyl)butyl]phenyl]-1H-benzimidazole], the IC50 worked out at 1.3 nM at Human D3 Receptors (setting [3]) and 32 nM at Human D2 Receptors (setting [2]). On the same counts, the results for `c1ccc(N2CCN(CCCNc3ccc(-c4nc5ccccc5[nH]4)cc3)CC2)cc1` [Example 17, N-[4-(1H-Benzimidazol-2-yl)phenyl]-4-phenyl-1-piperazine-3-propanamine] are 1.6 nM and 22 nM.

As for `CCCSc1ccccc1N1CCN(CCNC(=O)c2ccc(-c3nc4ccccc4[nH]3)cc2)CC1` [Example 19, 4-(1H-Benzimidazol-2-yl)-N-[2-[4-[2-(propylthio)phenyl]-1-piperazinyl]ethyl]benzamide], the values for the half-maximal inhibitory concentration (IC50) at Human D3 Receptors (setting [3]) and at Human D2 Receptors (setting [2]) were 19 nM and 119 nM, respectively. `CCCSc1ccccc1N1CCN(CCCOc2ccc(-c3nc4ccccc4[nH]3)cc2)CC1` [Example 7, 2-[4-[3-[4-[2-(Propylthio)phenyl]-1-piperazinyl]propoxy]phenyl]-1H-benzimidazole]: the IC50 at Human D2 Receptors (setting [2]) stood at 3.7 nM. Consider `c1ccc(N2CCN(CCCOc3ccc(-c4nc5ccccc5[nH]4)cc3)CC2)nc1` [Example 3, 2-[4-[3-[4-(2-Pyridinyl)-1-piperazinyl]propoxy]phenyl]-1H-benzimidazole], for which the 50% inhibitory concentration (IC50) at Human D2 Receptors (setting [2]) turned out to be 70 nM. On the same count and under the same terms, the value for `Clc1ccc(N2CCN(CCCOc3ccc(-c4nc5ccccc5[nH]4)cc3)CC2)cc1` [Example 9, 2-[4-[3-[4-(4-Chlorophenyl)-1-piperazinyl]propoxy]phenyl]-1H-benzimidazole] was 784 nM. As for `c1ccc(N2CCN(CCCOc3ccc(-c4nc5ccccc5[nH]4)cc3)CC2)cc1` [Example 1, 2-[4-[3-(4-Phenyl-1-piperazinyl)propoxy]phenyl]-1H-benzimidazole], the concentration for half-maximal inhibition (IC50) on Human D3 Receptors (setting [3]) was determined as 1 nM; on Human D2 Receptors (setting [2]), 406 nM. For the same molecule, in experiment [1], the ED50 stood at 2.3 mg/kg.

In the case of `Fc1ccc(N2CCN(CCCOc3ccc(-c4nc5ccccc5[nH]4)cc3)CC2)cc1` [Example 6, 2-[4-[3-[4-(4-Fluorophenyl)-1-piperazinyl]propoxy]phenyl]-1H-benzimidazole], the IC50 on Human D3 Receptors (setting [3]) worked out at 16 nM; on Human D2 Receptors (setting [2]), 119 nM. In the case of `c1cnc(N2CCN(CCCOc3ccc(-c4nc5ccccc5[nH]4)cc3)CC2)nc1` [Example 4, 2-[4-[3-[4-(2-Pyrimidinyl)-1-piperazinyl]propoxy]phenyl]-1H-benzimidazole], the IC50 at Human D2 Receptors (setting [2]) is 269 nM. Take `C1=C(c2ccccc2)CCN(CCCOc2ccc(-c3nc4ccccc4[nH]3)cc2)C1` [Example 8, 2-[4-[3-(3,6-Dihydro-4-phenyl-1(2H)-pyridinyl)propoxy]phenyl]-1H-benzimidazole]: the 50% inhibitory concentration (IC50) on Human D3 Receptors turned out to be 18 nM; on Human D2 Receptors (setting [2]), 672 nM. For the molecule `O=C(NCCN1CCN(c2ccccc2)CC1)c1ccc(-c2nc3ccccc3[nH]2)cc1` [Example 18, 4-(1H-Benzimidazol-2-yl)-N-[2-(4-phenyl-1-piperazinyl)ethyl]benzamide], the IC50 on Human D2 Receptors (setting [2]) was determined as 281 nM. On to `C(=C/c1ccc(-c2nc3ccccc3[nH]2)cc1)/CCN1CCN(c2ccccc2)CC1` [Example 21, (Z)-2-[4-[4-(4-Phenyl-1-piperazinyl)-1-butenyl]phenyl]-1H-benzimidazole], for which the IC50 at Human D3 Receptors (setting [3]) was found to be 81 nM; on Human D2 Receptors (setting [2]), 100 nM. On to `Clc1cccc(N2CCN(CCCOc3ccc(-c4nc5ccccc5[nH]4)cc3)CC2)c1` [Example 12, 2-[4-[3-[4-(3-Chlorophenyl)-1-piperazinyl]-propoxy]phenyl]-1H-benzimidazole], for which the IC50 on Human D2 Receptors (setting [2]) turned out to be 1270 nM.

`Cc1ccc(N2CCN(CCCOc3ccc(-c4nc5ccccc5[nH]4)cc3)CC2)cc1` [Example 5, 2-[4-[3-[4-(4-Methylphenyl)-1-piperazinyl]propoxy]phenyl]-1H-benzimidazole]: the half-maximal inhibitory concentration (IC50) on Human D3 Receptors (setting [3]) turned out to be 102 nM; on Human D2 Receptors (setting [2]) it was 2780 nM.

In the case of `COc1ccccc1N1CCN(CCCOc2ccc(-c3nc4ccccc4[nH]3)cc2)CC1` [Example 10, 2-[4-[3-[4-(2-Methoxyphenyl)-1-piperazinyl]-propoxy]phenyl]-1H-benzimidazole], the half-maximal inhibitory concentration (IC50) at Human D2 Receptors is 8 nM. Consider `C(#Cc1ccc(-c2nc3ccccc3[nH]2)cc1)CCN1CCN(c2ccccc2)CC1` [Example 15, 2-[4-[4-(4-Phenyl-1-piperazinyl)-1-butynyl]phenyl]-1H-benzimidazole], for which the results for the IC50 on Human D3 Receptors (setting [3]) and at Human D2 Receptors (setting [2]) were 1.7 nM and 581 nM, respectively. As to `Cn1c(-c2ccc(OCCCN3CCN(c4ccccc4)CC3)cc2)nc2ccccc21` [Example 14, 1-Methyl-2-[4-[3-(4-phenyl-1-piperazinyl)-propoxy]phenyl]-1H-benzimidazole], the 50% inhibitory concentration (IC50) was determined as 9.5 nM at Human D3 Receptors (setting [3]) and 219 nM on Human D2 Receptors (setting [2]). In the case of `COc1ccccc1N1CCN(CCNC(=O)c2ccc(-c3nc4ccccc4[nH]3)cc2)CC1` [Example 20, 4-(1H-Benzimidazol-2-yl)-N-[2-[4-(2-methoxyphenyl)-1-piperazinyl]ethyl]benzamide], the IC50 turned out to be 24 nM at Human D3 Receptors (setting [3]) and 55 nM on Human D2 Receptors (setting [2]). On the same counts, the results for `Clc1cccc(N2CCN(CCCOc3ccc(-c4nc5ccccc5[nH]4)cc3)CC2)c1Cl` [Example 2, 2-[4-[3-[4-(2,3-Dichlorophenyl)-1-piperazinyl]propoxy]phenyl]-1H-benzimidazole] are 1.7 nM and 45 nM.

For the origin of these results see patent publication US5486517A, “Benzimidazoles and imidazopyridines as central nervous system agents” (Warner-Lambert Company, priority 1994, dated 1996).
